Reference: patent EP0188793A1, “Improved topical minoxidil composition” (Richardson-Vicks, Inc., priority 1984, dated 1986)

Assay: in-vitro dripping (seepage) assay: distance traveled by a drop down an inclined glass plate
Format: physicochemical
Method: An in-vitro assay is utilized which measures the distance traveled by a 10 µ1 drop of the test formulation down a glass plate inclined at 45°C for 10 seconds. The test formulation is colored with dye to enhance the visual movement of the product. Pure ethanol (Ethanol, U.S.P) is used as the standard against which the test formulation is compared. […] The solvent system for each test formulation is 50:50 EtOH:HOH.
The ratio of the distance traveled ("dripping distance") by the particular test formulation to that of the ethanol standard provides the "dripping index" number for the test formulation.

- Dripping Distance (10 µ1 drop, glass plate inclined at 45°C, 10 seconds, solvent 50:50 EtOH:HOH): 60 mm
- Dripping Index (ratio of dripping distance of the test formulation to that of the ethanol standard): 1.00
SMILES: CCO [100% Ethanol, Ethanol]
